Results: patent US20110118304A1, “METHOD FOR TREATING OVER-EATING DISORDERS” (NeuroSearch A/S, priority 2007, published 2011)

Test system: Diet-Induced Obese Rats
Test: Effect of tesofensine on food-intake in diet-induced obese rats
Type: in vivo, male Sprague-Dawley rats
Details: single subcutaneous injection of 1,5 mg/kg at lights out; diet-induced obese rats on high-fat diet; versus vehicle (saline); FIG. 1
Description: These rats were from 3-5 weeks of age only given access to a high-fat diet (#12266B; 31.8% kcal from fat, energy density […], Research Diets, New Jersey). After 17 weeks on high-fat diet, animals were stratified according to body weight. Tesofensine was injected in different doses to male Sprague-Dawley rats. Vehicle (saline), or tesofensine at different doses (from 0,5 mg/kg to 2,0 mg/kg) was administered as a single subcutaneous injection at lights out. The level of food-intake was continuously determined over the next 18 hours in an automated food-delivering system.
In FIG. 1, the level of food-intake over night is illustrated of two groups of animals; receiving either a single dose of 1,5 mg/kg tesofensine (triangles) or vehicle (squares).
In FIG. 2, a relation between increasing doses of tesofensine and the accumulated food-intake over a 18 h observation is shown.

With CCOC[C@@H]1[C@@H](c2ccc(Cl)c(Cl)c2)C[C@@H]2CC[C@H]1N2C [tesofensine, (1R,2R,3S,5S)-3-(3,4-dichlorophenyl)-2-(ethoxymethyl)-8-methyl-8-azabicyclo[3.2.1]octane] the “level of food-intake over night” value was “inhibits food intake over night”.
